We go through 16 compounds from US10882867B2, “Forms and compositions of a MK2 inhibitor” (Celgene CAR LLC, priority 2017, dated 2021).

Data set [1] is described as follows: DSC and TGA thermal analysis. As to conditions: for % loss (TGA): screen sample; for endotherm observed (DSC): complex of Compound 1 with co-former, sample from primary salt/co-crystal screen.
The nature of data set [2]: Form conversion (form transfer) experiments: slurry, compression, heating, humidity cycle. It counts as physicochemical. Here is the method: Form conversion experiments were performed to determine interconversion among solid forms.
The stability of Form A was further characterized by compression test and form transfer experiments (Table 6). Upon application of 2000-psi pressure for about 1 minute, the material was still Form A, with broader diffraction peaks (FIG. 42(c)).

Data set [3] is described as follows: Dynamic vapor sorption (DVS) hygroscopicity. It counts as physicochemical. To be noted: for Hygroscopicity: DVS, 0 to 90% RH. Here is the method: Hygroscopicity was determined on a Surface Measurement Systems DVS. A sample size of 5-20 mg was loaded into the DVS instrument sample pan and the sample was analyzed on a DVS automated sorption analyzer at room temperature. The relative humidity was increased from 0% to 90% RH at 10% RH step, then decreased in a similar manner to accomplish a full adsorption/desorption cycle. FIGS. 29-33 depict the DVS isotherm plots of Forms A, C, D, E, and I.

The mark [4] stands for this setting: compression, 2000 psi, RT, 1 min.
The mark [5] stands for this setting: heating in KF oven, 190° C., ~10 min.
Setting [6] is: between 0 and 90% RH, room temperature.
The mark [7] stands for this setting: 0-90-0% RH cycle in DVS, 25° C.

Turning to `O=C(O)c1ccc2ccccc2c1O` [1-hydroxy-2-naphthoic acid (Form 1)], in data set [1] (up to 150° C.), the “% loss (TGA)” value is 10.82% loss up to 150 °C.

Take `O=C(O)c1ccc2ccccc2c1O` [1-hydroxy-2-naphthoic acid (Form 2)]: the “endotherm observed (DSC)” value in data set [1] is “endotherm observed at 169.60 °C”. Moreover, in data set [1] (up to 150° C.), the “% loss (TGA)” value was 1.86% loss up to 150 °C.

For `CCOCc1cnc(Cl)nc1Oc1ccc2c(ccc3sc4c(c32)NC[C@@H](C)NC4=O)n1` [Form B, (R)-3-((2-chloro-5-(ethoxymethyl)pyrimidin-4-yl)oxy)-10-methyl-9,10,11,12-tetrahydro-8H-[1,4]diazepino[5′,6′:4,5]thieno[3,2-f]quinolin-8-one], the “Resulting Form(s)” value in data set [2] (setting [4]) is given as “mainly Form B, with a small amount of Form A”; in data set [2] (compression, 2000 psi, RT, 1 min, listed as B), “B + A”; in data set [2] (setting [5]) it was “confirmed to be Form A”. In addition, the “Form change upon storage” value in data set [2] (storage in vials) is listed as “convert to Form A”.

For `CCOCc1cnc(Cl)nc1Oc1ccc2c(ccc3sc4c(c32)NC[C@@H](C)NC4=O)n1` [Form C, (R)-3-((2-chloro-5-(ethoxymethyl)pyrimidin-4-yl)oxy)-10-methyl-9,10,11,12-tetrahydro-8H-[1,4]diazepino[5′,6′:4,5]thieno[3,2-f]quinolin-8-one], the Hygroscopicity result in data set [3] is given as “hygroscopic”. Also, the DVS water uptake result in data set [3] (setting [6]) is “approximately 4.1 wt %”; in data set [3] (between 0 and 90% RH, room temperature, listed as C), “DVS: ~4.1 wt % water”. Besides, the “Resulting Form(s)” value in data set [2] (setting [7]) is “E + C + peaks”; in data set [2] (setting [4]) it was “partially convert to Form E”; in data set [2] (compression, 2000 psi, RT, 1 min, listed as C), “E + C + peaks”; in data set [2] (setting [5]), “a mixture of Form A and Form C”; in data set [2] (heating in KF oven, 190° C., ~10 min, listed as C), “A + C (shifted)”. For the same compound, the Resulting form entry in data set [2] (slurry in THF/water (5:95), time not given) is given as “convert to Form E”.

Turning to `CCOCc1cnc(Cl)nc1Oc1ccc2c(ccc3sc4c(c32)NC[C@@H](C)NC4=O)n1` [Form D, (R)-3-((2-chloro-5-(ethoxymethyl)pyrimidin-4-yl)oxy)-10-methyl-9,10,11,12-tetrahydro-8H-[1,4]diazepino[5′,6′:4,5]thieno[3,2-f]quinolin-8-one], the Hygroscopicity entry in data set [3] is “slightly hygroscopic”. For the same compound, the DVS water uptake entry in data set [3] (setting [6]) is given as “about 2.6 wt %”; in data set [3] (between 0 and 90% RH, room temperature, listed as D), “DVS: ~2.6 wt % water”. The “Resulting Form(s)” value in data set [2] (setting [7]) is “No form change”; in data set [2] (setting [4]), “mainly Form D”; in data set [2] (compression, 2000 psi, RT, 1 min, listed as D), “D (+ A?)”; in data set [2] (setting [5]), “confirmed to be Form A”.

In the case of `CCOCc1cnc(Cl)nc1Oc1ccc2c(ccc3sc4c(c32)NC[C@@H](C)NC4=O)n1` [Form E, (R)-3-((2-chloro-5-(ethoxymethyl)pyrimidin-4-yl)oxy)-10-methyl-9,10,11,12-tetrahydro-8H-[1,4]diazepino[5′,6′:4,5]thieno[3,2-f]quinolin-8-one], the DVS water uptake entry was “about 2.2 wt %” in data set [3] (between 0 and 60% RH); 7.5 wt % in data set [3] (setting [6]); “DVS: ~7.5 wt % water” in data set [3] (between 0 and 90% RH, room temperature, listed as E). Also, the “Resulting Form(s)” value was “No form change” in data set [2] (setting [7]), “still Form E” in data set [2] (setting [4]) and “confirmed to be Form E” in data set [2] (setting [5]). In addition, the Resulting form result is on record as “converted to Form A” in data set [2] (THF/water (5/95), long periods of equilibration); “converts to Form A” in data set [2] (slurry in acetone, temperature and time not given).

In the case of `CCOCc1cnc(Cl)nc1Oc1ccc2c(ccc3sc4c(c32)NC[C@@H](C)NC4=O)n1` [Form H, (R)-3-((2-chloro-5-(ethoxymethyl)pyrimidin-4-yl)oxy)-10-methyl-9,10,11,12-tetrahydro-8H-[1,4]diazepino[5′,6′:4,5]thieno[3,2-f]quinolin-8-one], the “Resulting Form(s)” value is recorded as “A + I” in data set [2] (slurry in THF/water (5:95), RT, 8 days) and “generated Form I” in data set [2] (slurry in water, RT, 4 days).

Regarding `CCOCc1cnc(Cl)nc1Oc1ccc2c(ccc3sc4c(c32)NC[C@@H](C)NC4=O)n1` [Form I, (R)-3-((2-chloro-5-(ethoxymethyl)pyrimidin-4-yl)oxy)-10-methyl-9,10,11,12-tetrahydro-8H-[1,4]diazepino[5′,6′:4,5]thieno[3,2-f]quinolin-8-one], the DVS water uptake result in data set [3] (setting [6]) is on record as “Approximately 1.5 wt %”. Moreover, the “Resulting Form(s)” value in data set [2] (setting [7]) was “change to Form A”.

Regarding `O=C1O[C@H]([C@@H](O)CO)C(O)=C1O` [L-ascorbic acid], the “endotherm observed (DSC)” value in data set [1] was “endotherm observed at 88.26 °C”. In addition, the “% loss (TGA)” value in data set [1] (up to 100° C.) was 2.55% loss up to 100 °C.

Take `NCCCC[C@H](N)C(=O)O` [L-lysine]: the “% loss (TGA)” value was 12.61% loss from 150 to 250 °C in data set [1] (from 150 to 250° C.) and 7.32% loss up to 150 °C in data set [1] (up to 150° C.).

As to `O=C(O)c1cc(O)ccc1O` [gentisic acid], the “endotherm observed (DSC)” value in data set [1] was “endotherm observed at 115.17 °C”. The “% loss (TGA)” value in data set [1] (up to 120° C.) was 1.69% loss up to 120 °C.

Turning to `O=C(O)/C=C\C(=O)O` [maleic acid], in data set [1], the “endotherm observed (DSC)” value was “endotherm observed at 153.89 °C”. Moreover, the “% loss (TGA)” value in data set [1] (up to […] C.) was 9.87% loss up to 155 °C.

For `CS(=O)(=O)O` [methanesulfonic acid], the “endotherm observed (DSC)” value in data set [1] was “endotherm observed at 157.01 °C”. In addition, the “% loss (TGA)” value in data set [1] (up to 160° C.) was 8.28% loss up to 160 °C.

In the case of `Cc1ccc(S(=O)(=O)O)cc1` [p-toluenesulfonic acid], the “% loss (TGA)” value in data set [1] (up to 130° C.) was 3.50% loss up to 130 °C.

On to `O=C1NS(=O)(=O)c2ccccc21` [saccharin], for which, in data set [1] (up to […] C.), the “% loss (TGA)” value was 3.70% loss up to 165 °C.

On to `N#CS` [thiocyanic acid], for which the entries for the “% loss (TGA)” value in data set [1] (from 100 to 200° C.) and in data set [1] (up to 100° C.) were 6.54% loss from 100 to 200 °C and 3.04% loss up to 100 °C, respectively.
